Tests used:
DLD1 = assay: SRB cell growth inhibition assay; format: cell-based; settings: Homo sapiens, DLD-1, 48 h, colorectal cancer sensitive, mean ± SEM
Source text: (§1) Taking into consideration the promising results of preliminary NCI screening, nine compounds (1, 2, 3, 4, 5, 20, 23, 24, 25) were selected for further screening in two counterpart pairs of sensitive and MDR cell lines. […] Two distinct pairs of counterpart drug-sensitive and MDR human tumor cell lines were used, namely the non-small lung cancer (NSCLC) NCI-H460 (same cell line as in the NCI screen) and its MDR counterpart cell line NCI-H460/R and the colorectal cancer DLD1 and its MDR counterpart cell line DLD1-TxR (Table 3). The screening was performed using the SRB assay, and the GI50 for each compound was determined by interpolation on the attained concentration−response curves and compared with NCI60 screening data (SI, Figures S62−S63; Table S21).
(§2) Two pairs of drug-sensitive and multidrug-resistant (MDR) cell lines from human nonsmall cell lung cancer (NSCLC), NCI-H460 and NCI-H460/R, and colorectal cancer, DLD1 and DLD1-TxR, kindly provided by Dr M. Pešić (Belgrade, Serbia), were used to evaluate the growth inhibition potential of the compounds 1, 2, 3, 4, 5, 20, 23, 24, an 25.[76],[77] Additionally, growth inhibition assays were performed with compound 25 on two other NSCLC cell lines, A549 and NCI-H322, obtained from the American Type Culture Collection (ATCC) and the European Collection of Authenticated Cell Cultures, respectively. The A549 cell line was maintained in Dulbecco’s Modified Eagle Medium (DMEM) supplemented with 4.5 g/L Glucose with UltraGlutamine with sodium pyruvate (Lonza, Basel Stücki, Switzerland), enriched with 10% fetal bovine serum (FBS; Biowest, Nuaillé, France). The lung fibroblast MRC-5 cell line and the remaining NSCLC and colorectal cancer cell lines were cultured in Roswell Park Memorial Institute (RPMI) 1640 (with stable glutamine and 25 mM HEPES) medium (Biowest), supplemented with 10% fetal bovine serum. […] For the sulforhodamine B (SRB) and 3D cell culture assays, the media were supplemented with 5% FBS. The remaining experiments were performed with medium supplemented with 10% FBS.
(§3) Cells were seeded at a previously determined optimal cell concentration (5.0 × 10^4 cells/mL for NSCLC cells and the nontumorigenic MRC-5 cell line and 1.0 × 10^5 cells/mL for colorectal cancer cells) and incubated at 37 °C for 24 h. […] The SRB assay was performed as previously described.[78],[79] Briefly, after fixing cells with 10% (w/v) ice-cold trichloroacetic acid (Merck Life Science), the proteins were stained with 0.4% of SRB (Merck Life Science) in acetic acid (Merck Life Science). Following washing steps in acetic acid, the bound dye was solubilized with 10 mM Tris base solution (Merck Life Science). Absorbance was measured at 510 nm in a multiplate reader (Synergy Mx, Biotek Instruments Inc., Winooski, Vermont, USA) using the Gen5 software (Biotek Instruments Inc.).

NCI-H460 = assay: SRB cell growth inhibition assay; format: cell-based; settings: Homo sapiens, 48 h, NSCLC sensitive, mean ± SEM
Source text: as §1, §2, §3

DLD1-TxR = assay: SRB cell growth inhibition assay; format: cell-based, human; settings: for selectivity ratio colorectal cancer: GI50 sensitive DLD1 / GI50 MDR DLD1-TxR; for GI50: Homo sapiens, 48 h, colorectal cancer MDR, mean ± SEM; for GI50 / GI50 concentration range against MDR DLD1-TxR: SRB assay; for GI50 concentration range against MDR DLD1-TxR: in words
Experimental: Two distinct pairs of counterpart drug-sensitive and MDR human tumor cell lines were used, namely the non-small lung cancer (NSCLC) NCI-H460 (same cell line as in the NCI screen) and its MDR counterpart cell line NCI-H460/R and the colorectal cancer DLD1 and its MDR counterpart cell line DLD1-TxR (Table 3). The screening was performed using the SRB assay, and the GI50 for each compound was determined by interpolation on the attained concentration−response curves and compared with NCI60 screening data (SI, Figures S62−S63; Table S21).
as §2, §3

[1] = tested on: NCI60 tumor cell line panel; assay: NCI60 one-dose screen (10 μM), mean growth; format: cell-based, human; settings: 48 h, one dose 10 μM, mean cell growth of 60 tumor cell lines; for activity at 10 µM: Homo sapiens
Experimental: S2.1 NCI Screening Assay Experimental details
NCI Screening Assay Experimental: Cancer cell growth assays (NCI60 screening) 5,6 One-dose study: Tested compounds were initially solubilised in DMSO, diluted into RPMI 1640 and 5% fetal bovine serum/L-glutamine, and added to 96-well plates containing cell lines previously cultured for 24 h. After 48 h incubation, the media were removed, and the cells were fixed and stained with sulforhodamine B to determine overall percent growth/ total protein content. Unbound dye was removed with five washes of 1% acetic acid, and the plates were allowed to air dry. The dye was then resolubilised in Tris buffer, and the colorimetric absorbance was measured (515 nm). Growth inhibition was measured relative to the response generated from proliferating cells cultured under identical conditions for 48 h. […]

SMILES	GI50 (DLD1)	GI50 (NCI-H460)	selectivity ratio colorectal cancer (DLD1-TxR)	GI50 (DLD1-TxR)	GI50 concentration range against MDR DLD1-TxR (DLD1-TxR)	activity at 10 µM [1]	mean growth (%, 10 μM) [1]
COC(=O)c1c2c(c(C)[n+]([O-])c1C)C(=O)C=C(NCc1ccccc1)C2=O [Compound 2]	2330 ± 380 nM	1430 ± 130 nM	2.7	880 ± 90 nM	nanomolar range		
COC(=O)c1c2c(c(C)[n+]([O-])c1C)C(=O)C(NCc1ccc(F)cc1)=CC2=O [Compound 4]	5940 ± 300 nM	2700 ± 300 nM	1.9	3130 ± 100 nM		18%	
COC(=O)c1c2c(c(C)[n+]([O-])c1C)C(=O)C=C(NCc1ccc(F)cc1)C2=O [Compound 5]	1220 ± 140 nM	560 ± 200 nM	1.8	670 ± 50 nM	nanomolar range	-37%	-37%
COC(=O)c1c2c(c(C)[n+]([O-])c1C)C(=O)C(NCc1ccc(O)cc1)=CC2=O [Compound 20]	9670 ± 1150 nM	6020 ± 340 nM	1.6	5930 ± 550 nM		-21%	-21%
COC(=O)c1c2c(c[n+]([O-])c1C)C(=O)C=CC2=O [Compound 23]	30200 ± 4080 nM	38000 ± 8320 nM	2	14900 ± 680 nM		44.5%	
COC(=O)c1c2c(c[n+]([O-])c1C)C(=O)C(NCc1ccccc1)=CC2=O [Compound 24]	1390 ± 170 nM	750 ± 140 nM	1.9	720 ± 30 nM	nanomolar range	-35.1%	-35.1%
COC(=O)c1c2c(c[n+]([O-])c1C)C(=O)C=C(NCc1ccccc1)C2=O [Compound 25]	610 ± 110 nM	350 ± 20 nM	1.5	420 ± 30 nM	nanomolar range		
COc1cccc2c1C(=O)c1c(O)c3c(c(O)c1C2=O)C[C@@](O)(C(=O)CO)C[C@@H]3O[C@H]1C[C@H](N)[C@H](O)[C@H](C)O1 [doxorubicin, reference compound]		30 ± 10 nM					

Reference: PMC11345829, “Discovery of Potent Isoquinolinequinone N-Oxides to Overcome Cancer Multidrug Resistance” (Journal of Medicinal Chemistry, 2024)
